Measured values reported in patent US4892826A, “Process for the preparation of urokinase derivatives” (Abbott Laboratories, priority 1988, dated 1990).

Experiments:
[1] = Urokinase amidolytic activity assay with chromogenic substrate S-2444; type: biochemical; conditions: isolated derivative
Protocol: The reduction of the three disulfide bridges can be monitored, for example, by assays of the amidolytic activity of the urokinase, by titration of the available SH groups, or by reverse phase chromatography of the reduced urokinase. Preferably, the reduction is monitored by assaying the gain or loss of amidolytic activity of the urokinase.
Approximately 1 to 2 mg/ml of the UK23 solution, in 0.1M phosphate (pH 7), was diluted with 1 volume of 0.5M arginine in water (pH 7). The reducing agent DTT, from a fresh stock solution of 1M in water, was added to adjust the final DTT concentration to 10 mM. […] The absorbance increase at 406 nm was monitored over a five minute period. One enzyme unit was defined as an increase in absorbance at 406 nm of 1 unit per minute.

urokinase = urokinase (Homo sapiens, UniProt P00749); experiment: biochemical
Excerpt: The optimal concentration of arginine can be approximated by its apparent Ki value for inhibition of urokinase as calculated from a Dixon plot. Dixon, M, Biochem. J., 55, 170-171 (1953). […] It is preferred that the concentration of arginine chosen will maximally saturate the urokinase molecule and confer a protective effect against the previously discussed over reduction of the disulfide bridges.

Compound: Heparin-LKFQCGQK Urokinase Derivative [Example 4]
- active (amidolytic activity of resulting derivative) [1]: 100%

Compound: GPRP-Amino hexanoic acid-LKFQCGQK Urokinase Derivative [Example 1]
- amidolytic activity, % of the initial UK23 value ([1]; repeated procedures): 80% to 100

Compound: N=C(N)NCCC[C@H](N)C(=O)O [arginine]
- Ki (urokinase): 70 mM
